Values of other authors, collected in patent publication US20100129431A1, “IDEBENONE COMPOSITION FOR THE TREATMENT OF NEUROLOGICAL DISORDERS” (AlphaRx Inc., priority 2008, published 2010).

How the values were obtained:
[1] = tested on: patients with cerebrovascular disease; conditions: 90 mg daily, nine patients
[2] = tested on: cultured cortical neurons; conditions: also when applied 30 minutes after the NMDA pulse
[3] = tested on: Friedreich's Ataxia patients
free radical species = conditions: cell cultures
[4] = tested on: microsomal lipid peroxidation; conditions: induced by ADP-iron complexes or organic hydroperoxides
rats = conditions: cerebral embolization, cerebral ischemia or basal forebrain lesions
[5] = clinical tests
[6] = oral

microsomal lipid peroxidation [4]: inhibit microsomal lipid peroxidation
bioavailability [6]: relatively, high
water solubility: low
Structure (SMILES): COC1=C(OC)C(=O)C(CCCCCCCCCCO)=C(C)C1=O [Idebenone, 2,3-dimethoxy-5-methyl-6-(10-hydroxydecyl)-1,4-benzoquinone]
EEG and clinical symptoms [1]: improvements in EEG and clinical symptoms
protection against necrotic degeneration [2]: protects cultured cortical neurons against necrotic degeneration
left ventricular enlargement ([3]; 5 mg/kg daily for 4-9 months, three patients): reduction of left ventricular enlargement
marker of oxidative DNA damage ([3]; oral 5 mg/kg daily for 8 weeks): significantly decreased
free radical scavenging (free radical species): scavenged a variety of free radical species
learning and memory disturbances (rats): ameliorates learning and memory disturbances
psychological deficits (memory retention, disorientation) [5]: effective in reducing psychological deficits
